Experimental data as given in patent EP0041644B1 (priority 1980, dated 1981).

Experiments:
[1] = test system: L1210 Leukemia; assay: L1210 Leukemia - Test 2; format: in vivo, mice
[2] = test system: L1210 Leukemia; assay: L1210 Leukemia - Test 3 (vehicle comparison); format: in vivo, mice; conditions: for Effect MST % T/C / MST Days: Day 1 only
[3] = test system: B16 Melanoma; assay: B16 Melanoma - Test 2 (ip tumor brei); format: in vivo, mice; conditions: QD +9
[4] = test system: B16 Melanoma; assay: B16 Melanoma - Test 3 (sc trocar fragments); format: in vivo, mice
[5] = test system: Lewis Lung Carcinoma; assay: Lewis Lung Carcinoma - Test 1 (ip, delayed therapy); format: in vivo, mice
[6] = water

## [NH2][Pt]1([NH2])[O]C(=O)C([O-])C(=O)[O]1.[Na+] [Example 3, 2-Hydroxymalonato diammine platinum (II), sodium salt]
[1]; 4 mg/kg/inj ip, qd 1→9
  Effect MST % T/C: 100 % T/C
  MST Days: 7.0 days
[1]; 8 mg/kg/inj ip, qd 1→9
  Effect MST % T/C: 114 % T/C
  MST Days: 8.0 days
[1]; 16 mg/kg/inj ip, qd 1→9
  Effect MST % T/C: 157 % T/C
  MST Days: 11.0 days
[1]; 20 mg/kg/inj iv, d.1, 5&9
  Effect MST % T/C: 100 % T/C
  MST Days: 7.0 days
[1]; 24 mg/kg/inj ip, qd 1→9
  Effect MST % T/C: 207 % T/C
  MST Days: 14.5 days
[1]; 40 mg/kg/inj ip, d.1
  Effect MST % T/C: 114 % T/C
  MST Days: 8.0 days
[1]; 40 mg/kg/inj iv, d.1
  Effect MST % T/C: 100 % T/C
  MST Days: 7.0 days
[1]; 40 mg/kg/inj iv, d.1, 5&9
  Effect MST % T/C: 107 % T/C
  MST Days: 7.5 days
[1]; 60 mg/kg/inj ip, d.1
  Effect MST % T/C: 121 % T/C
  MST Days: 8.5 days
[1]; 60 mg/kg/inj iv, d.1
  Effect MST % T/C: 100 % T/C
  MST Days: 7.0 days
[1]; 60 mg/kg/inj iv, d.1, 5&9
  Effect MST % T/C: 143 % T/C
  MST Days: 10.0 days
[1]; 80 mg/kg/inj iv, d.1, 5&9
  Effect MST % T/C: 100 % T/C
  MST Days: 7.0 days
[1]; 90 mg/kg/inj ip, d.1
  Effect MST % T/C: 143 % T/C
  MST Days: 10.0 days
[1]; 90 mg/kg/inj iv, d.1
  Effect MST % T/C: 107 % T/C
  MST Days: 7.5 days
[1]; 120 mg/kg/inj ip, d.1
  Effect MST % T/C: 136 % T/C
  MST Days: 9.5 days
[1]; 120 mg/kg/inj iv, d.1
  Effect MST % T/C: 100 % T/C
  MST Days: 7.0 days
[1]; iv, multi-dose regimen
  maximum T/C: 143%
[1]; multi-dose therapy ip (qd 1→9)
  maximum T/C: 207-214%
[1]; single ip doses, ip L1210
  maximum T/C: 143%
[2]; 10 mg/kg ip, vehicle H2O
  Effect MST % T/C: 114 % T/C
  MST Days: 8.0 days
[2]; 10 mg/kg ip, vehicle Saline
  Effect MST % T/C: 100 % T/C
  MST Days: 7.0 days
[2]; 20 mg/kg ip, vehicle H2O
  Effect MST % T/C: 143 % T/C
  MST Days: 10.0 days
[2]; 20 mg/kg ip, vehicle Saline
  Effect MST % T/C: 100 % T/C
  MST Days: 7.0 days
[2]; 40 mg/kg ip, vehicle H2O
  Effect MST % T/C: 129 % T/C
  MST Days: 9.0 days
[2]; 40 mg/kg ip, vehicle Saline
  Effect MST % T/C: 114 % T/C
  MST Days: 8.0 days
[2]; 60 mg/kg ip, vehicle H2O
  Effect MST % T/C: 143 % T/C
  MST Days: 10.0 days
[2]; 60 mg/kg ip, vehicle Saline
  Effect MST % T/C: 114 % T/C
  MST Days: 8.0 days
[2]; 80 mg/kg ip, vehicle H2O
  Effect MST % T/C: 143 % T/C
  MST Days: 10.0 days
[2]; 80 mg/kg ip, vehicle Saline
  Effect MST % T/C: 143 % T/C
  MST Days: 10.0 days
[2]; 100 mg/kg ip, vehicle H2O
  Effect MST % T/C: 143 % T/C
  MST Days: 10.0 days
[2]; 100 mg/kg ip, vehicle Saline
  Effect MST % T/C: 129 % T/C
  MST Days: 9.0 days
[2]; single dose ip, saline and water as vehicles
  Maximum increase in median lifespan (T/C): 143%
[3]; 2 mg/kg/day ip
  Average Weight Change: -1.5 g
  Effect MST % T/C: 160 % T/C
  MST Days: 33.0 days
[3]; 4 mg/kg/day ip
  Average Weight Change: -2.8 g
  Effect MST % T/C: 168 % T/C
  MST Days: 34.5 days
[3]; 8 mg/kg/day ip
  Average Weight Change: -3.2 g
  Effect MST % T/C: 163 % T/C
[3]; 16 mg/kg/day ip
  Average Weight Change: -2.9 g
  Effect MST % T/C: 185 % T/C
  MST Days: 38.0 days
[3]; Day 10, 8 mg/kg/day ip
  Survivors Day 10 (60): 9/10
[3]; Day 60 (figure in parentheses), 16 mg/kg/day ip
  Survivors Day 10 (60): 1
[4]; 8 mg/kg/inj ip, qd 1→9
  Effect MST %TC: 102 %TC
  MST Days: 31.0 days
[4]; 12 mg/kg/inj ip, qd 1→9
  Effect MST %TC: 92 %TC
  MST Days: 28.0 days
[4]; 16 mg/kg/inj ip, qd 1→9
  Effect MST %TC: 125 %TC
  MST Days: 38.0 days
[4]; 20 mg/kg/inj iv, d.1, 5&9
  Effect MST %TC: 93 %TC
  MST Days: 28.5 days
[4]; 24 mg/kg/inj ip, qd 1→9
  Effect MST %TC: TOX
  MST Days: TOX
[4]; 40 mg/kg/inj iv, d.1, 5&9
  Effect MST %TC: 108 %TC
  MST Days: 33.0 days
[4]; 60 mg/kg/inj iv, d.1, 5&9
  Effect MST %TC: 108 %TC
  MST Days: 33.0 days
[4]; 80 mg/kg/inj iv, d.1, 5&9
  Effect MST %TC: TOX
  MST Days: TOX
[4]; 100 mg/kg/inj iv, d.1, 5&9
  Effect MST %TC: TOX
  MST Days: TOX
[4]; given ip, sc-implanted B16 melanoma
  T/C: 125%
[4]; given iv, sc-implanted B16 melanoma
  maximum T/C: not active
[5]; 4 mg/kg/inj ip, qd 5→13
  Effect MST %TC: 120 %TC
  MST Days: 15.0 days
[5]; 8 mg/kg/inj ip, qd 5→13
  Effect MST %TC: 140 %TC
  MST Days: 17.5 days
[5]; 12 mg/kg/inj ip, qd 5→13
  Effect MST %TC: 148 %TC
  MST Days: 18.5 days
[5]; 16 mg/kg/inj ip, qd 5→13
  Effect MST %TC: 160 %TC
  MST Days: 20.0 days
[5]; 20 mg/kg/inj ip, d. 5,9&13
  Effect MST %TC: 124 %TC
  MST Days: 15.5 days
[5]; 20 mg/kg/inj iv, d. 5,9&13
  Effect MST %TC: 100 %TC
  MST Days: 12.5 days
[5]; 40 mg/kg/inj ip, d. 5,9&13
  Effect MST %TC: 148 %TC
  MST Days: 18.5 days
[5]; 40 mg/kg/inj iv, d. 5,9&13
  Effect MST %TC: 108 %TC
  MST Days: 13.5 days
[5]; 60 mg/kg/inj ip, d. 5,9&13
  Effect MST %TC: 196 %TC
  MST Days: 24.5 days
[5]; 60 mg/kg/inj iv, d. 5,9&13
  Effect MST %TC: 132 %TC
  MST Days: 16.5 days
[5]; 80 mg/kg/inj ip, d. 5,9&13
  Effect MST %TC: 268 %TC
  MST Days: 33.5 days
[5]; 80 mg/kg/inj iv, d. 5,9&13
  Effect MST %TC: 148 %TC
  MST Days: 18.5 days
[5]; given ip, at maximum T/C
  long-term survivors (day 48): 2 to 6
[5]; given ip, therapy from day 5
  maximum T/C: 268%
[5]; given iv, therapy from day 5
  T/C: 148%
[6]
  Solubility in H2O at 22-25°C: > 100 mg/mL
